According to US8673929B2, “4,6-di- and 2,4,6-trisubstituted quinazoline derivatives and pharmaceutical compositions useful for treating viral infections” (priority 2006, dated 2014):

Experiments:
HCV replicon = experiment: Anti-HCV replicon assay, EC50 (luciferase readout); format: cell-based; details: Hepatitis C virus, 72 h; Huh-7 HCV replicon cells, 3 days incubation, luciferase luminescence
Procedure, shortened: (§1)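 Huh-7 cells harbouring an HCV replicon (6000/well) incubated 3 days at 37° C with 3-fold serially diluted compound (0.5% DMSO final where used). EC50 from luciferase luminescence of lysed cells; CC50 from CellTiter-Glo luminescence in parallel plates.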

[1] = CC50 assay in the anti-HCV replicon assay (CellTiter-Glo); format: cell-based, human; details: human, Huh-7 hepatoma cells harbouring an HCV replicon; Huh-7 HCV replicon cells, 3 days incubation, CellTiter-Glo luminescence
Procedure, shortened: as §1

| Compound | EC50 (HCV replicon) | CC50 at 3 days [1] |
| --- | --- | --- |
| CC(C)Oc1nc(N)nc2ccc(-c3ccc(C(=O)NCc4ccccc4)cc3)cc12 [Example 170, 4-(2-Amino-4-isopropoxy-quinazolin-6-yl)-N-benzyl-benzamide] | 0.3 to 1 µM | < 10 µM |
| CC(C)CNC(=O)c1ccc(-c2ccc3nc(N)nc(OC(C)C)c3c2)cc1 [Example 171, 4-(2-Amino-4-isopropoxy-quinazolin-6-yl)-N-isobutyl-benzamide] | 0.3 to 1 µM | 10 to 20 µM |
| CC(C)Oc1nc(N)nc2ccc(-c3ccc(C(=O)NC4CCCCC4)cc3)cc12 [Example 172, 4-(2-Amino-4-isopropoxy-quinazolin-6-yl)-N-cyclohexyl-benzamide] | 0.3 to 1 µM | < 10 µM |
| CCCCNC(=O)c1ccc(-c2ccc3nc(N)nc(OC(C)C)c3c2)cc1 [Example 173, 4-(2-Amino-4-isopropoxy-quinazolin-6-yl)-N-butyl-benzamide] | < 0.3 µM | < 10 µM |
| CC(C)Oc1nc(N)nc2ccc(-c3ccc(C(=O)NC(C)(C)C)cc3)cc12 [Example 174, 4-(2-Amino-4-isopropoxy-quinazolin-6-yl)-N-tert-butyl-benzamide] | 0.3 to 1 µM | 10 to 20 µM |
| CC(C)Oc1nc(N)nc2ccc(-c3ccc(C(=O)NC4CCCC4)cc3)cc12 [Example 175, 4-(2-Amino-4-isopropoxy-quinazolin-6-yl)-N-cyclopentyl-benzamide] | < 0.3 µM | < 10 µM |
| CC(C)NC(=O)c1ccc(-c2ccc3nc(N)nc(OC(C)C)c3c2)cc1 [Example 176, 4-(2-Amino-4-isopropoxy-quinazolin-6-yl)-N-isopropyl-benzamide] | < 0.3 µM | 10 to 20 µM |
| CONC(=O)c1ccc(-c2ccc3nc(N)nc(OC(C)C)c3c2)cc1 [Example 177, 4-(2-Amino-4-isopropoxy-quinazolin-6-yl)-N-methoxy-benzamide] | < 0.3 µM | 10 to 20 µM |
| CC(C)Oc1nc(N)nc2ccc(-c3ccc(C(=O)NCCN(C)C)cc3)cc12 [Example 178, 4-(2-Amino-4-isopropoxy-quinazolin-6-yl)-N-(2-dimethylamino-ethyl)-benzamide] | < 0.3 µM | < 10 µM |
| CC(C)Oc1nc(N)nc2ccc(-c3ccc(C(=O)Nc4ccc(F)cc4)cc3)cc12 [Example 179, 4-(2-Amino-4-isopropoxy-quinazolin-6-yl)-N-(4-fluoro-phenyl)-benzamide] | 0.3 to 1 µM | < 10 µM |
| CC(C)Oc1nc(N)nc2ccc(-c3ccc(C(=O)N4CCSCC4)cc3)cc12 [Example 180, [4-(2-Amino-4-isopropoxy-quinazolin-6-yl)-phenyl]-thiomorpholin-4-yl-methanone] | 1 to 10 µM | 10 to 20 µM |
| CC(C)Oc1nc(N)nc2ccc(-c3ccc(C(=O)NC4=NCCS4)cc3)cc12 [Example 181, 4-(2-Amino-4-isopropoxy-quinazolin-6-yl)-N-(4,5-dihydro-thiazol-2-yl)-benzamide] | 0.3 to 1 µM | 10 to 20 µM |
| CNC(=O)c1ccc(-c2ccc3nc(N)nc(OC(C)C)c3c2)cc1Cl [Example 182, 4-(2-Amino-4-isopropoxy-quinazolin-6-yl)-2-chloro-N-methyl-benzamide] | < 0.3 µM | > 20 µM |
| CC(C)Oc1nc(N)nc2ccc(-c3ccc(C(=O)NC4CC4)c(Cl)c3)cc12 [Example 183, 4-(2-Amino-4-isopropoxy-quinazolin-6-yl)-2-chloro-N-cyclopropyl-benzamide] | 0.3 to 1 µM | > 20 µM |
| CC(C)Oc1nc(N)nc2ccc(-c3cccc(O)c3)cc12 [Example 184, 3-(2-Amino-4-isopropoxy-quinazolin-6-yl)-phenol] | 0.3 to 1 µM | < 10 µM |
| CC(C)Oc1nc(N)nc2ccc(-c3ccc(C(=O)NC4CC4)cc3)cc12 [Example 185, 4-(2-Amino-4-isopropoxy-quinazolin-6-yl)-N-cyclopropyl-benzamide] | < 0.3 µM | < 10 µM |
| CNC(=O)c1cccc(-c2ccc3nc(N)nc(OC(C)C)c3c2)c1 [Example 186, 3-(2-Amino-4-isopropoxy-quinazolin-6-yl)-N-methyl-benzamide] | 0.3 to 1 µM | 10 to 20 µM |
| CCOc1nc(N)nc2ccc(-c3ccc(-c4nnc(C)o4)cc3)cc12 [Example 187, 4-Ethoxy-6-[4-(5-methyl-[1,3,4]oxadiazol-2-yl)-phenyl]-quinazolin-2-ylamine] | 1 to 10 µM | > 20 µM |
| CC(C)CNC(=O)c1ccc(-c2ccc3nc(N)nc(OCCO)c3c2)cc1 [Example 188, 4-[2-Amino-4-(2-hydroxy-ethoxy)-quinazolin-6-yl]-N-isobutyl-benzamide] | 1 to 10 µM | > 20 µM |
| Nc1nc(OCCO)c2cc(-c3ccc(C(=O)NC4CCCC4)cc3)ccc2n1 [Example 189, 4-[2-Amino-4-(2-hydroxy-ethoxy)-quinazolin-6-yl]-N-cyclopentyl-benzamide] | 1 to 10 µM | > 20 µM |

| Compound | EC50 (HCV replicon) | CC50 at 3 days [1] |
| --- | --- | --- |
| CC(C)NC(=O)c1ccc(-c2ccc3nc(N)nc(OCCO)c3c2)cc1 [Example 190, 4-[2-Amino-4-(2-hydroxy-ethoxy)-quinazolin-6-yl]-N-isopropyl-benzamide] | 1 to 10 µM | > 20 µM |
| CONC(=O)c1ccc(-c2ccc3nc(N)nc(OCCO)c3c2)cc1 [Example 191, 4-[2-Amino-4-(2-hydroxy-ethoxy)-quinazolin-6-yl]-N-methoxy-benzamide] | 1 to 10 µM | > 20 µM |
| Nc1nc(OCCO)c2cc(-c3ccc(C(=O)N4CCSC4)cc3)ccc2n1 [Example 192, {4-[2-Amino-4-(2-hydroxy-ethoxy)-quinazolin-6-yl]-phenyl}-thiazolidin-3-yl-methanone] | 1 to 10 µM | > 20 µM |
| Nc1nc(OCCO)c2cc(-c3ccc(O)cc3)ccc2n1 [Example 193, 4-[2-Amino-4-(2-hydroxy-ethoxy)-quinazolin-6-yl]-phenol] | 1 to 10 µM | > 20 µM |
| Nc1nc(OCCO)c2cc(-c3cccc(O)c3)ccc2n1 [Example 194, 3-[2-Amino-4-(2-hydroxy-ethoxy)-quinazolin-6-yl]-phenol] | 1 to 10 µM | 10 to 20 µM |
| Nc1nc(OCCO)c2cc(-c3ccc(C(=O)NC4CC4)cc3)ccc2n1 [Example 195, 4-[2-Amino-4-(2-hydroxy-ethoxy)-quinazolin-6-yl]-N-cyclopropyl-benzamide] | 1 to 10 µM | > 20 µM |
| Nc1nc(OCCF)c2cc(-c3ccc(C(=O)N4CCCCC4)cc3)ccc2n1 [Example 196, {4-[2-Amino-4-(2-fluoro-ethoxy)-quinazolin-6-yl]-phenyl}-piperidin-1-yl-methanone] | 1 to 10 µM | > 20 µM |
| Nc1nc(OCCF)c2cc(-c3ccc(C(=O)NCc4ccccc4)cc3)ccc2n1 [Example 197, 4-[2-Amino-4-(2-fluoro-ethoxy)-quinazolin-6-yl]-N-benzyl-benzamide] | 1 to 10 µM | 10 to 20 µM |
| CC(C)CNC(=O)c1ccc(-c2ccc3nc(N)nc(OCCF)c3c2)cc1 [Example 198, 4-[2-Amino-4-(2-fluoro-ethoxy)-quinazolin-6-yl]-N-isobutyl-benzamide] | 1 to 10 µM | 10 to 20 µM |
| CCCCNC(=O)c1ccc(-c2ccc3nc(N)nc(OCCF)c3c2)cc1 [Example 199, 4-[2-Amino-4-(2-fluoro-ethoxy)-quinazolin-6-yl]-N-butyl-benzamide] | 1 to 10 µM | > 20 µM |
| CC(C)(C)NC(=O)c1ccc(-c2ccc3nc(N)nc(OCCF)c3c2)cc1 [Example 200, 4-[2-Amino-4-(2-fluoro-ethoxy)-quinazolin-6-yl]-N-tert-butyl-benzamide] | 1 to 10 µM | > 20 µM |
| Nc1nc(OCCF)c2cc(-c3ccc(C(=O)NC4CCCC4)cc3)ccc2n1 [Example 201, 4-[2-Amino-4-(2-fluoro-ethoxy)-quinazolin-6-yl]-N-cyclopentyl-benzamide] | 1 to 10 µM | 10 to 20 µM |
| CC(C)NC(=O)c1ccc(-c2ccc3nc(N)nc(OCCF)c3c2)cc1 [Example 202, 4-[2-Amino-4-(2-fluoro-ethoxy)-quinazolin-6-yl]-N-isopropyl-benzamide] | 1 to 10 µM | > 20 µM |
| CONC(=O)c1ccc(-c2ccc3nc(N)nc(OCCF)c3c2)cc1 [Example 203, 4-[2-Amino-4-(2-fluoro-ethoxy)-quinazolin-6-yl]-N-methoxy-benzamide] | 1 to 10 µM | > 20 µM |
| Nc1nc(OCCF)c2cc(-c3ccc(C(=O)N4CCSC4)cc3)ccc2n1 [Example 204, {4-[2-Amino-4-(2-fluoro-ethoxy)-quinazolin-6-yl]-phenyl}-thiazolidin-3-yl-methanone] | 1 to 10 µM | > 20 µM |
| Nc1nc(OCCF)c2cc(-c3ccc(C(=O)N4CCSCC4)cc3)ccc2n1 [Example 205, {4-[2-Amino-4-(2-fluoro-ethoxy)-quinazolin-6-yl]-phenyl}-thiomorpholin-4-yl-methanone] | 1 to 10 µM | > 20 µM |
| Nc1nc(OCCF)c2cc(-c3ccc(C(=O)NC4=NCCS4)cc3)ccc2n1 [Example 206, 4-[2-Amino-4-(2-fluoro-ethoxy)-quinazolin-6-yl]-N-(4,5-dihydro-thiazol-2-yl)-benzamide] | 1 to 10 µM | > 20 µM |
| CNC(=O)c1ccc(-c2ccc3nc(N)nc(OCCF)c3c2)cc1Cl [Example 207, 4-[2-Amino-4-(2-fluoro-ethoxy)-quinazolin-6-yl]-2-chloro-N-methyl-benzamide] | 1 to 10 µM | > 20 µM |
| Nc1nc(OCCF)c2cc(-c3ccc(C(=O)NC4CC4)c(Cl)c3)ccc2n1 [Example 208, 4-[2-Amino-4-(2-fluoro-ethoxy)-quinazolin-6-yl]-2-chloro-N-cyclopropyl-benzamide] | 1 to 10 µM | > 20 µM |
